The supplement of paper PMC8617591

Legend:
[1] = tested on: Mycobacterium tuberculosis Erdman (autoluminescent); test: total FIC50 (Loewe) at 50% inhibition, three-drug combination (log2); higher = more antagonistic
Description: (§1)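 DiaMOND equipotent three-drug combination dose responses (10 doses, 1.5- or 2-fold spacing, centred on IC90) against autoluminescent M. tuberculosis Erdman in 8 in vitro models. Read-out is OD600, or luminescence for the intracellular and dormancy models, normalised to untreated wells. Hill-fit Einf, AUC25 and GRinf are potency metrics; FIC50 and FIC90 are total Loewe fractional inhibitory concentrations as log2 (negative = synergy).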

[2] = tested on: Mycobacterium tuberculosis Erdman (autoluminescent); test: total FIC90 (Loewe) at 90% inhibition, three-drug combination (log2); higher = more antagonistic
Description: as §1

[3] = tested on: Mycobacterium tuberculosis Erdman (autoluminescent); test: Einf, fitted maximum growth inhibition of three-drug combination (fraction); higher = stronger maximal inhibition
Description: as §1

[4] = tested on: Mycobacterium tuberculosis Erdman (autoluminescent); test: AUC25, normalised area under dose response up to IC25 (three-drug combination) (fraction (0-1)); higher = more potent at low dose
Description: as §1

[5] = tested on: Mycobacterium tuberculosis Erdman (autoluminescent); test: GRinf, maximum normalised growth rate inhibition (three-drug combination) (unitless (-1 to 1)); higher = less effect (negative = killing)
Description: as §1

COc1nc2ccc(Br)cc2cc1[C@@H](c1ccccc1)[C@@](O)(CCN(C)C)c1cccc2ccccc12 [bedaquiline] + COc1c(N2C[C@@H]3CCCN[C@@H]3C2)c(F)cc2c(=O)c(C(=O)O)cn(C3CC3)c12 [moxifloxacin] + CO[C@H]1/C=C/O[C@@]2(C)Oc3c(C)c(O)c4c(O)c(c(/C=N/N5CCN(C)CC5)c(O)c4c3C2=O)NC(=O)/C(C)=C\C=C\[C@H](C)[C@H](O)[C@@H](C)[C@@H](O)[C@@H](C)[C@H](OC(C)=O)[C@@H]1C [rifampicin]
Conditions	AUC25, [4]	Einf, [3]	GRinf, [5]	total FIC50, [1]	total FIC90, [2]
in vitro model: acidic pH 5.7, time point: constant (~7 days, model-specific)	0.0637	0.833	-0.0329	0.708	–
in vitro model: acidic pH 5.7, time point: terminal (~4-5 doublings, model-specific)	0.0621	0.98	-0.13	1.07	0.594
in vitro model: intracellular J774, time point: constant = terminal	–	0.938	-0.427	–	0.931

Conditions	AUC25, [4]	Einf, [3]	GRinf, [5]	total FIC50, [1]	total FIC90, [2]
in vitro model: butyrate, time point: constant (~7 days, model-specific)	0.12	0.964	-0.414	0.594	0.579
in vitro model: butyrate, time point: terminal (~4-5 doublings, model-specific)	0.105	0.99	-0.247	0.573	1.1
in vitro model: cholesterol 0.05 mM, time point: constant (~7 days, model-specific)	0.0826	0.745	-0.166	0.0975	–
in vitro model: cholesterol 0.05 mM, time point: terminal (~4-5 doublings, model-specific)	0.074	0.866	-0.045	1.13	-0.616
in vitro model: cholesterol-high 0.2 mM, time point: constant (~7 days, model-specific)	0.057	0.957	-0.452	0.677	0.0311
in vitro model: cholesterol-high 0.2 mM, time point: terminal (~4-5 doublings, model-specific)	0.0547	1	-0.61	0.955	0.594
in vitro model: dormancy (butyrate + nitrate, low O2), time point: constant (~7 days, model-specific)	0.0876	0.925	0.215	0.688	0.901
in vitro model: dormancy (butyrate + nitrate, low O2), time point: terminal (~4-5 doublings, model-specific)	0.0619	0.982	-0.201	0.97	1.03
in vitro model: standard 7H9 glycerol, time point: constant = terminal	0.0774	0.96	-0.141	0.732	–
in vitro model: valerate, time point: constant (~7 days, model-specific)	0.046	0.884	-0.0825	1.19	–
in vitro model: valerate, time point: terminal (~4-5 doublings, model-specific)	0.0316	0.953	-0.044	1.1	0.726

COc1nc2ccc(Br)cc2cc1[C@@H](c1ccccc1)[C@@](O)(CCN(C)C)c1cccc2ccccc12 [bedaquiline] + COc1c(N2C[C@@H]3CCCN[C@@H]3C2)c(F)cc2c(=O)c(C(=O)O)cn(C3CC3)c12 [moxifloxacin] + NC(=O)c1cnccn1 [pyrazinamide]
Conditions	AUC25, [4]	Einf, [3]	GRinf, [5]	total FIC50, [1]	total FIC90, [2]
in vitro model: acidic pH 5.7, time point: constant (~7 days, model-specific)	0.0871	0.847	-0.43	0.0701	–
in vitro model: acidic pH 5.7, time point: terminal (~4-5 doublings, model-specific)	0.0844	0.984	-0.325	0.276	-0.165
in vitro model: intracellular J774, time point: constant = terminal	–	0.982	-0.385	–	0.89

Conditions	AUC25, [4]	Einf, [3]	GRinf, [5]	total FIC50, [1]	total FIC90, [2]
in vitro model: butyrate, time point: constant (~7 days, model-specific)	0.108	0.952	-0.798	0.562	1.12
in vitro model: butyrate, time point: terminal (~4-5 doublings, model-specific)	0.0863	0.987	-0.741	0.738	1.18
in vitro model: cholesterol 0.05 mM, time point: constant (~7 days, model-specific)	0.113	0.762	-0.387	–	–
in vitro model: cholesterol 0.05 mM, time point: terminal (~4-5 doublings, model-specific)	0.115	0.95	-0.419	0.205	2.28
in vitro model: cholesterol-high 0.2 mM, time point: constant (~7 days, model-specific)	0.0866	0.981	-0.58	0.399	–
in vitro model: cholesterol-high 0.2 mM, time point: terminal (~4-5 doublings, model-specific)	0.0915	1	-0.586	0.406	0.558
in vitro model: dormancy (butyrate + nitrate, low O2), time point: constant (~7 days, model-specific)	0.0687	0.928	0.247	-0.56	-0.988
in vitro model: dormancy (butyrate + nitrate, low O2), time point: terminal (~4-5 doublings, model-specific)	0.0596	0.987	-0.0885	0.109	-0.187
in vitro model: standard 7H9 glycerol, time point: constant = terminal	0.0806	0.969	-0.108	–	–
in vitro model: valerate, time point: constant (~7 days, model-specific)	0.102	0.916	-0.131	0.831	–
in vitro model: valerate, time point: terminal (~4-5 doublings, model-specific)	0.06	0.949	-0.0556	0.778	1.03

COc1nc2ccc(Br)cc2cc1[C@@H](c1ccccc1)[C@@](O)(CCN(C)C)c1cccc2ccccc12 [bedaquiline] + COc1c(N2C[C@@H]3CCCN[C@@H]3C2)c(F)cc2c(=O)c(C(=O)O)cn(C3CC3)c12 [moxifloxacin] + O=[N+]([O-])c1cn2c(n1)OC[C@@H](OCc1ccc(OC(F)(F)F)cc1)C2 [pretomanid]
Conditions	AUC25, [4]	Einf, [3]	GRinf, [5]	total FIC50, [1]	total FIC90, [2]
in vitro model: acidic pH 5.7, time point: constant (~7 days, model-specific)	0.1	0.838	-0.377	0.596	–
in vitro model: acidic pH 5.7, time point: terminal (~4-5 doublings, model-specific)	0.0692	0.971	-0.329	0.946	0.743
in vitro model: intracellular J774, time point: constant = terminal	–	0.972	-0.42	–	0.518

Conditions	AUC25, [4]	Einf, [3]	GRinf, [5]	total FIC50, [1]	total FIC90, [2]
in vitro model: butyrate, time point: constant (~7 days, model-specific)	0.11	0.974	-0.202	0.96	1.4
in vitro model: butyrate, time point: terminal (~4-5 doublings, model-specific)	0.0807	0.979	-0.386	1.02	1.52
in vitro model: cholesterol 0.05 mM, time point: constant (~7 days, model-specific)	0.102	0.689	-0.187	0.771	–
in vitro model: cholesterol 0.05 mM, time point: terminal (~4-5 doublings, model-specific)	0.0953	0.946	-0.21	0.672	0.565
in vitro model: cholesterol-high 0.2 mM, time point: constant (~7 days, model-specific)	0.0866	0.945	-0.309	0.743	1.24
in vitro model: cholesterol-high 0.2 mM, time point: terminal (~4-5 doublings, model-specific)	0.082	1	-0.571	0.598	0.93
in vitro model: dormancy (butyrate + nitrate, low O2), time point: constant (~7 days, model-specific)	0.0412	0.905	0.272	0.0257	-0.733
in vitro model: dormancy (butyrate + nitrate, low O2), time point: terminal (~4-5 doublings, model-specific)	0.0577	0.995	-0.1	0.157	0.118
in vitro model: standard 7H9 glycerol, time point: constant = terminal	0.08	0.98	-0.122	-0.0856	-0.137
in vitro model: valerate, time point: constant (~7 days, model-specific)	0.123	0.932	-0.393	0.261	–
in vitro model: valerate, time point: terminal (~4-5 doublings, model-specific)	0.0843	0.956	-0.165	0.431	0.866
